Reference: patent publication US4925835A, “Aziridinyl putrescine containing compositions and their uses in treating prostate cancer” (priority 1987, dated 1990)
Where two headings read alike, the source gives them in different places.

Tests used:
[1] = test system: human prostate cancer cell line PC-3; experiment: cells; format: cell-based
Procedure: Aziridinyl putrescine 1-(4-aminobutyl) aziridine was synthesized using the method as described by Piper, et al., J. Med. Chem. 12: 236-243 (1968). Cells of the human prostate cancer cell line PC-3 were used.
10^3 PC-3 human cells were plated in RPMI 1640 with 10% FCS/3 ml in 60 mm^2 petri dishes. The cell plates were incubated either with, or without difluoromethylornithine for 48 hours. This was followed by aspiration, and replacement with a medium containing either no additives, 50 uM 1-(4-aminobutyl) aziridine, 1 mM putrescine, or both 50 uM 1-(4-aminobutyl) aziridine and 1 mM putrescine. The media were aspirated after 1 hour, and replaced with a drug free medium. Incubation continued for 5 days.
*Represents mean number of colonies ± one standard deviation of
triplicate assay. Number in parenthesis is percent of control.

[2] = test system: PC-3 human prostatic carcinoma cell line; experiment: cells; format: cell-based; details: for Cell number as a percentage of the control mean cell number / Cell no.: 1 μM AZP; for Cell no.: mean ± SE; for activity at 1 µM / EC50: Homo sapiens, Prostatic carcinoma cell; for activity at 1 µM: 192 h
Procedure: FIG. 3. Effect of AZP on the growth of PC-3 cells with or without DFMO pretreatment. PC-3 cells (3×10^4) were plated in 60-mm^2 Petri dish in RPMI 1640-10% FCS and allowed to attach overnight. The following day the medium was aspirated and replaced with RPMI 1640, 10% FCS, 100 μM aminoguanidine with or without 1 mm DFMO. Forty-eight h later the medium was aspirated, the dishes were rinsed once with HBSS, and the cells were incubated with RPMI 1640-10% FCS-100 μM aminoguanidine with or without 25 μM AZP for 1 h. Following the 1-h incubation the medium was aspirated, the plates were rinsed twice with HBSS, and the incubation was continued with fresh RPMI 1640-10% FCS-100 μM aminoguanidine. At the indicated times following initial plating the cells were lifted from the plate by trypsinization and were examined for their ability to exclude trypan blue. Total cell counts were obtained with the aid of a hemocytometer, and the completeness of the removal of the cells from the dish was verified by the examination of each dish with the inverted microscope. , control; Δ, DFMO; .circle., AZP; .quadrature., DFMO+AZP. Points, means; bars, SE.
FIG. 4. Dose-effect relationship of AZP on the growth on PC-3 prostatic cancer cells. PC-3 cells (3×10^4) were plated in RPMI 1640-10% FCS in 60-mm^2 Petri dishes and allowed to attach overnight. The following day the medium was aspirated and replaced with RPMI 1640-10% FCS-100 μM aminoguanidine with or without 1 mm DFMO. Forty-eight h later the medium was aspirated, and the cells were rinsed once with HBSS and replaced with RPMI 1640-10% FCS-100 μM aminoguanidine with or without the indicated μM concentrations of AZP. After a 1-h incubation the medium was aspirated, the cells were rinsed twice with HBSS, and the incubation was continued with fresh RPMI 1640-10% FCS-100 μM aminoguanidine. Eight days following plating the cells were lifted from the plates by trypsinization and were counted with the aid of a hemocytometer and expressed as a percentage of control (100% without DFMO, 212±31×10^4; 100% with DFMO pretreatment, 219±25× 10^4 cells, respectively). , DFMO pretreated; .circle., without DFMO.
Assays of cell growth were performed by plating 3×10^4 PC-3 cells in RPMI 1640 medium with 10% FCS and allowing them to attach overnight. The following morning the medium was replaced with incubation medium consisting of RPMI 1640, 10% FCS, 100 μM aminoguanidine, 100 units/ml of penicillin, 100 μg/ml of streptomycin, and 2 mM glutamine, with or without 1 mM difluoromethylornithine. Two days later the medium was aspirated and replaced with or without 1-(4-aminobutyl) aziridine at the designated concentration usually for 1 h or for the designated length of time. Following the 1-h incubation, the medium of all groups was aspirated and the dishes were rinsed with HBSS and replaced with fresh incubation medium. Either daily or 8 days following plating, the Petri dishes were rinsed with HBSS and the cells were lifted from the plate by trypsinization. The dishes were examined for completeness of cell removal by examination with an inverted microscope. The cells were counted with a Zeiss microscope using a hemocytometer. Tumor cell population doubling time was determined by ploting the natural logarithm (ln) of the number of cells versus the days following plating. The slope of this line was determined using the Memorial Sloan-Kettering Cancer Center Clin computer system statistical analysis package. Doubling time (DT) was determined as ln 2/slope=DT. Statistical differences in cell number between groups were determined by Student's t statistic with the aid of the Memorial Sloan-Kettering Cancer Center Clin computer using the statistics program.
^a Thirty thousand PC3 cells were plated in 60mm^2 Petri dishes i
RPMI 164010% FCS. The next day the medium was aspirated and replaced with
RPMI 164010% FCS medium with 100 μM aminoguanidine with or without 1 m
DFMO. Fortyeight h later the medium was aspirated. […]

[3] = 2 h incubation, DFMO pretreated, day 8
[4] = 4 h incubation, DFMO pretreated, day 8

With NCCCCN1CC1 [AZP, 1-(4-aminobutyl) aziridine] the activity at 50 µM ([1]; Homo sapiens, PC-3, read-out: Clonogenic survivors, percent of control) was 36%, the inhibition at 50 µM ([1]; Homo sapiens, PC-3, read-out: Inhibition of proliferation of human prostate cancer cells in culture, AZP at 50 uM, from Table 1) was ~64% and the “Clonogenic survivors (mean number of colonies ± one standard deviation)” value ([1]; PC-3, 48 h with or without DFMO, then 1 h with 50 uM AZP and/or 1 mM putrescine, 5 days drug free) was 210 ± 30 colonies. For the same compound, the “Cell number as a percentage of the control mean cell number” value (from here on “Cell number as a percentage”) ([2]; 1 h incubation, DFMO pretreated, day 8) was 73%, the Cell no. ([2]; 1 h incubation, no DFMO (Control), day 8) was 236 ± 8 × 10^-4 and the “Cell number as a percentage” value [2, 3] was 52%. The Cell no. [2, 3] was 114 ± 10 × 10^-4, the Cell no. ([2]; 2 h incubation, no DFMO (Control), day 8) was 202 ± 11 × 10^-4 and the “Cell number as a percentage” value [2, 4] was 32%. The Cell no. [2, 4] was 70 ± 8 × 10^-4, the “Cell number as a percentage” value ([2]; 8 h incubation, DFMO pretreated, day 8) was ~9% and the Cell no. ([2]; 8 h incubation, no DFMO (Control), day 8) was 122 ± 16 × 10^-4. The “Cell number as a percentage” value ([2]; 24 h incubation, DFMO pretreated, day 8) was 0.9%, the Cell no. ([2]; 24 h incubation, no DFMO (Control), day 8) was 30 ± 11 × 10^-4 and the “Cell no. as a percentage of control” value ([2]; DFMO-pretreated PC-3 (1 mM, 48 h), single agent 1 h (Put 100 μM or AZP 10 μM), day 8) was 9%. It also gave an activity at 1 µM ([2]; read-out: Cell number as a percentage of the control mean cell number, 1 μM AZP, 1 h incubation, no DFMO (Control), day 8) of 98%, an activity at 1 µM ([2]; read-out: Cell number as a percentage of the control mean cell number, 1 μM AZP, 2 h incubation, no DFMO (Control), day 8) of 84% and an activity at 1 µM ([2]; read-out: Cell number as a percentage of the control mean cell number, 1 μM AZP, 4 h incubation, no DFMO (Control), day 8) of 66%. The activity at 1 µM ([2]; read-out: Cell number as a percentage of the control mean cell number, 1 μM AZP, 8 h incubation, no DFMO (Control), day 8) was 51%, the activity at 1 µM ([2]; read-out: Cell number as a percentage of the control mean cell number, 1 μM AZP, 24 h incubation, no DFMO (Control), day 8) was ~12% and the EC50 ([2]; read-out: 50% effective dose (cell growth), PC-3, 1 h exposure, counted 8 days after plating, 1 mM DFMO pretreatment 48 h) was 2.1 µM. The EC50 ([2]; read-out: 50% effective dose (cell growth), PC-3, 1 h exposure, counted 8 days after plating, without DFMO) was 18 µM, the “Cells per dish on day 8 following plating” value ([2]; PC-3, 3×10^4 plated, ±1 mM DFMO 48 h, ±25 μM AZP 1 h, mean±SD of triplicates) was 123±10 ×10^4 cells per dish and the Doubling time ([2]; PC-3, 25 μM AZP 1 h or 1 mM DFMO 48 h, mean±SE) was 1.53 ± 0.06 days. The “Growth-inhibitory activity toward PC-3 cells (in words)” value ([2]; brief 1-h exposure) was “definitely growth inhibitory”.
